What is called AC50 is the midpoint of the concentration-response curve, whichever way the signal moves. A low value points to activity at low concentration.

In test [1] the target is T1, Gastrin/cholecystokinin type B receptor (Homo sapiens, UniProt P32239).
T1 sequence (P32239 whole entry): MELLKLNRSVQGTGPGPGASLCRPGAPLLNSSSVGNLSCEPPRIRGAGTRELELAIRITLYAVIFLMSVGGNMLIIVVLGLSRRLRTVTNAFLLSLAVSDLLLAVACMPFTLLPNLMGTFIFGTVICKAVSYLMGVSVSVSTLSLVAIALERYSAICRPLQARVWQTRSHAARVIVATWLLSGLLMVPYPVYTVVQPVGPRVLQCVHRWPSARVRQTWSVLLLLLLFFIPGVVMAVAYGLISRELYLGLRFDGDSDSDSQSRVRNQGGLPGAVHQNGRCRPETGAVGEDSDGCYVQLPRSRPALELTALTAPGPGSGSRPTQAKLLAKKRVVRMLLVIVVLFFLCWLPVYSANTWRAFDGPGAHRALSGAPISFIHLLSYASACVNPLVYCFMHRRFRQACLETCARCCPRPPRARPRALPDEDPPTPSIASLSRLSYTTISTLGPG

For a further test, the target named is Cannabinoid receptor 1 (Homo sapiens, UniProt P21554). It counts as functional, cell-based.
The target in the next test is T2, Progesterone receptor (Homo sapiens, UniProt P06401).
T2 sequence (P06401 whole entry): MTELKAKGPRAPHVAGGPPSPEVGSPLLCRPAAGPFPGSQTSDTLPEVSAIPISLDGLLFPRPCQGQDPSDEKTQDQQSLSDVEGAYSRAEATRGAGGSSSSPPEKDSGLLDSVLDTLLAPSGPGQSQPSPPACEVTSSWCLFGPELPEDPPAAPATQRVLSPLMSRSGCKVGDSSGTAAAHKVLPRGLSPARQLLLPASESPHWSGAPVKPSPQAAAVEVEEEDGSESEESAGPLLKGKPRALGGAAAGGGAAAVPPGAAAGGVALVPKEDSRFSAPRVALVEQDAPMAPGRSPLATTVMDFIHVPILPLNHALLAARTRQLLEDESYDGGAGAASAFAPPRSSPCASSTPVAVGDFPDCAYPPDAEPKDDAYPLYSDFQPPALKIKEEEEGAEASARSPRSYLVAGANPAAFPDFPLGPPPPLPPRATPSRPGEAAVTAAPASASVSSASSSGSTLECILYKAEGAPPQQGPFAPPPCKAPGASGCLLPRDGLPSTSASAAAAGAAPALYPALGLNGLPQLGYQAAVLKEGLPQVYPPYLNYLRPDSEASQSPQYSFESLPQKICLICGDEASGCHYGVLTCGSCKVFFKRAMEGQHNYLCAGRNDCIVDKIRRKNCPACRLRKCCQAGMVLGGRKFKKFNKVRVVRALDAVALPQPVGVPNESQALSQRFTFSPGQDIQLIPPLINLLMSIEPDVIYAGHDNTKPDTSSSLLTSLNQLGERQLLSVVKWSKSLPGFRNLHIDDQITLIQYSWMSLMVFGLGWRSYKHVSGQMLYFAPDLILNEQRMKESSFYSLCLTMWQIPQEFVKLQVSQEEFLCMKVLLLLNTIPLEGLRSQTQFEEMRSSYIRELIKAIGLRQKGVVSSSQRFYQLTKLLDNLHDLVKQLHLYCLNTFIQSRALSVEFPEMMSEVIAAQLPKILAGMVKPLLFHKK
It counts as functional.

For test [2], the target named is T3, Amine oxidase [flavin-containing] A (Homo sapiens, UniProt P21397).
T3 sequence (P21397 whole entry): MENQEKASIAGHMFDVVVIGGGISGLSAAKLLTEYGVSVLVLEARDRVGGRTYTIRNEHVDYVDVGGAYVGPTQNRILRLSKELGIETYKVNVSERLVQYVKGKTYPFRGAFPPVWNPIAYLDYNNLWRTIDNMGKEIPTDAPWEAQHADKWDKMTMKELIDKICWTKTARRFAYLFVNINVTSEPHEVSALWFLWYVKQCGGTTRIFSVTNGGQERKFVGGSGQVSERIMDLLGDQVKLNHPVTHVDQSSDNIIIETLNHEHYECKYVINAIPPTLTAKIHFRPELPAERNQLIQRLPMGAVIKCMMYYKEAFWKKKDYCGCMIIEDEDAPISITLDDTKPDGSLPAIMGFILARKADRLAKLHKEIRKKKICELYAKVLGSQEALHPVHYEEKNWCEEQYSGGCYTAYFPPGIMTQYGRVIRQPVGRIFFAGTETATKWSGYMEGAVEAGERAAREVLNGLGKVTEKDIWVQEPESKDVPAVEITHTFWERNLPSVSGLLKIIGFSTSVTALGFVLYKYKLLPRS
It counts as functional.

For another test, the target named is T4, Endothelin-1 receptor (Homo sapiens, UniProt P25101).
T4 sequence (P25101 whole entry): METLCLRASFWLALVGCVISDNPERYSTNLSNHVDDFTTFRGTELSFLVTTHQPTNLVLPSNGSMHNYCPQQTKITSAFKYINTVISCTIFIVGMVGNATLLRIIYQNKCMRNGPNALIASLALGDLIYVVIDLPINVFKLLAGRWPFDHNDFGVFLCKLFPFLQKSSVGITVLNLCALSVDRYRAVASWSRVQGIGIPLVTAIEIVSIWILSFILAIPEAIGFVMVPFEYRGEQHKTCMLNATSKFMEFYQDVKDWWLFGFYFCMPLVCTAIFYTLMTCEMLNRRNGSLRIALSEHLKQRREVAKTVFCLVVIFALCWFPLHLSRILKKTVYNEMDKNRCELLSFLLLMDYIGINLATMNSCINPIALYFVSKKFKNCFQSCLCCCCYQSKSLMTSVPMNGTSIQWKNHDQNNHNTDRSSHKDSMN

For the next test, the target named is Mu-type opioid receptor (Homo sapiens, UniProt P35372). Put plainly: biochemical. It counts as functional.
Test [3] has as its target T5, Alpha-1A adrenergic receptor (Homo sapiens, UniProt P35348).
T5 sequence (P35348 whole entry): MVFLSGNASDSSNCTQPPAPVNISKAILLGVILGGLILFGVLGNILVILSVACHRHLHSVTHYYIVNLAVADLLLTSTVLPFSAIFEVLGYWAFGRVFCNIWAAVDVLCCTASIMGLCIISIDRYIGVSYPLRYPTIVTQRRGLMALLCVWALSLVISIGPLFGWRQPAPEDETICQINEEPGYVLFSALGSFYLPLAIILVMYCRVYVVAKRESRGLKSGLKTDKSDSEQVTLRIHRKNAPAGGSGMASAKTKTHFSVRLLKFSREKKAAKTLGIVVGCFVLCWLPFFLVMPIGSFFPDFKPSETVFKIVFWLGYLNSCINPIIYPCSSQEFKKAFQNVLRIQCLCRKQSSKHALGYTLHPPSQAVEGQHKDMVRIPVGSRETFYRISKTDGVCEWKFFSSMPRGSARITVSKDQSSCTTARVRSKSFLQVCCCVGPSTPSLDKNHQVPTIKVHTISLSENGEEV
It counts as functional, cell-based.

Test [4] has as its target 5-hydroxytryptamine receptor 2A (Homo sapiens, UniProt P28223). It counts as functional, cell-based.
Also: assay procedure not described here.

Cannabinoid receptor 1, sequence (P21554 whole entry): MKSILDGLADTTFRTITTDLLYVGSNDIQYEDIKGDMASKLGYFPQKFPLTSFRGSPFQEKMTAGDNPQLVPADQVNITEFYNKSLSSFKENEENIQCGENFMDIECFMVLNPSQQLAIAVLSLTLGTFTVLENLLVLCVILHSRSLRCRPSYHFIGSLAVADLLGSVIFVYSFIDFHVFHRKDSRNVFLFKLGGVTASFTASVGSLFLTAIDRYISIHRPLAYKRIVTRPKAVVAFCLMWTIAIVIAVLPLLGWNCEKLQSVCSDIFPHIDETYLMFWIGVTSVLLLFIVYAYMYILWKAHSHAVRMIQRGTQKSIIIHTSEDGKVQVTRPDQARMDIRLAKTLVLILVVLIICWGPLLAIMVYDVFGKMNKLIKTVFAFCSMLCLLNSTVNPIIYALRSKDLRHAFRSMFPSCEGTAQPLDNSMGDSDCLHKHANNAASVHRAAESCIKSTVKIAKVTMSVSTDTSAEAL
5-hydroxytryptamine receptor 2A, sequence (P28223 whole entry): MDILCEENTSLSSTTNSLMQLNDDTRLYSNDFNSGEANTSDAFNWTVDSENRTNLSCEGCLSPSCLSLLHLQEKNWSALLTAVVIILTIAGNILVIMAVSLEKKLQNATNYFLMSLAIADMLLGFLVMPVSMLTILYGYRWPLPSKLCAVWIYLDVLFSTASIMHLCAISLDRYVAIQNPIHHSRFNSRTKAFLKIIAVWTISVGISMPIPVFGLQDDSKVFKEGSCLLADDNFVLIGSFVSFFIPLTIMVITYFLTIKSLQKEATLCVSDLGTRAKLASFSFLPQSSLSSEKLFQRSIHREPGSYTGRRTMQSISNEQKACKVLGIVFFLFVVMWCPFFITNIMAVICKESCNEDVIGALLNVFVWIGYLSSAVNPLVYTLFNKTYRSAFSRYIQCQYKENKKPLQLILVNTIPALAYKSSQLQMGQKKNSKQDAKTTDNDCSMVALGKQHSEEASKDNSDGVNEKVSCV
Mu-type opioid receptor, sequence (P35372 whole entry): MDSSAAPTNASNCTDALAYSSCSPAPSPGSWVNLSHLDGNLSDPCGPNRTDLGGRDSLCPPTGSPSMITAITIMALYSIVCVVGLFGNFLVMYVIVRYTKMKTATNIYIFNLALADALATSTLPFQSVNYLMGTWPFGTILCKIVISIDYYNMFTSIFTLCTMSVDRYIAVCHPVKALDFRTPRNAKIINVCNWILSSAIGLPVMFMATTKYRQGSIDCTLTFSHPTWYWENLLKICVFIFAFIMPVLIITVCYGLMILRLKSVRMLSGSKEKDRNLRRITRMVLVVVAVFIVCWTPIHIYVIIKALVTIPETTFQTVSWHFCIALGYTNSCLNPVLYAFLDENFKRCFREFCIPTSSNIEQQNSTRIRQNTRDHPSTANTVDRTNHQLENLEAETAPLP

Turning to `CCOC(=O)OC(C)OC1=C(C(=O)Nc2ccccn2)N(C)S(=O)(=O)c2ccccc21` (centres undefined) [AMPIROXICAM], the half-maximal activity concentration (AC50) (in test [1]; on Cannabinoid receptor 1; on Progesterone receptor; in test [2]; on Endothelin-1 receptor; at Mu-type opioid receptor) was > 30 µM throughout. Besides, the AC50 in test [3] is > 30 µM.
As to `O=C(O)CCCCCCCC(=O)O` [AZELAIC ACID], the half-maximal activity concentration (AC50) was > 10 µM at Progesterone receptor, > 10 µM in test [2], > 30 µM on Mu-type opioid receptor and > 10 µM in test [4].
For the molecule `Cn1c(=O)c2c(ncn2CC2OCCO2)n(C)c1=O` [DOXOFYLLINE], the AC50 (in test [1]; at Cannabinoid receptor 1; at Progesterone receptor; in test [2]; at Endothelin-1 receptor; at Mu-type opioid receptor) was > 30 µM throughout. The AC50 in test [3] is > 30 µM.
In the case of `CCCCc1ncc(/C=C(\Cc2cccs2)C(=O)O)n1Cc1ccc(C(=O)O)cc1` [EPROSARTAN], the AC50 in test [1] was > 10 µM; on Cannabinoid receptor 1, > 30 µM; in test [2], > 10 µM; at Endothelin-1 receptor it was > 30 µM; in test [4], > 30 µM; in test [3], > 30 µM.
On to `C[C@]1(O)CC[C@H]2[C@@H]3CCC4=CC(=O)CC[C@]4(C)[C@@]3(F)[C@@H](O)C[C@@]21C` [FLUOXYMESTERONE], for which the half-maximal activity concentration (AC50) was 0.074 µM on Progesterone receptor, > 30 µM in test [2], > 30 µM on Mu-type opioid receptor and > 10 µM in test [4].
As for `Cc1ccc(S(=O)(=O)NC(=O)NN2CC3CCCC3C2)cc1` (centres undefined) [GLICLAZIDE], the AC50 on Progesterone receptor is > 10 µM; in test [2], > 30 µM; at Mu-type opioid receptor, > 30 µM.
With `Nc1nc(N)nc(-c2cc(Cl)ccc2Cl)n1` [IRSOGLADINE], the AC50 (in test [1]; on Cannabinoid receptor 1; on Progesterone receptor; in test [2]; on Endothelin-1 receptor; on Mu-type opioid receptor) was > 30 µM in each case. Further, the concentration at half-maximal activity (AC50) in test [3] is > 30 µM.
As for `CO[C@@H]1[C@@H](O[C@@H]2O[C@H](C)[C@@H](O[C@H]3C[C@@](C)(O)[C@@H](OC(=O)CC(C)C)[C@H](C)O3)[C@H](N(C)C)[C@H]2O)[C@@H](CC=O)C[C@@H](C)[C@@H](O)/C=C/C=C/C[C@@H](C)OC(=O)C[C@H]1OC(C)=O` [JOSAMYCIN], the half-maximal activity concentration (AC50) was > 10 µM at Progesterone receptor, > 10 µM in test [2], > 30 µM at Mu-type opioid receptor and > 10 µM in test [4].
As to `C[C@H](N)[C@H](O)c1cccc(O)c1` [METARAMINOL], the concentration at half-maximal activity (AC50) is > 10 µM on Progesterone receptor, > 10 µM in test [2], > 30 µM at Mu-type opioid receptor and > 10 µM in test [4].
`C[C@](N)(Cc1ccc(O)c(O)c1)C(=O)O` [METHYLDOPA]: the AC50 was > 30 µM at Progesterone receptor, > 10 µM in test [2] and > 30 µM on Mu-type opioid receptor.
Consider `O=C(NCCN1CCOCC1)c1ccc(Cl)cc1` [MOCLOBEMIDE], for which the AC50 was > 10 µM at Progesterone receptor and > 30 µM on Mu-type opioid receptor.
Take `COc1ccc2c3c1O[C@H]1C(=O)CC[C@@]4(O)[C@@H](C2)N(C)CC[C@]314` [OXYCODONE]: the AC50 (in test [1]; at Cannabinoid receptor 1; at Progesterone receptor; in test [2]; at Endothelin-1 receptor; in test [4]) was > 30 µM each time. In test [3], the AC50 is > 30 µM.
For the molecule `CCCN(CCC)C(=O)C(CCC(=O)O)NC(=O)c1ccccc1` (centres undefined) [PROGLUMIDE], the AC50 (at Progesterone receptor; in test [2]; at Endothelin-1 receptor; at Mu-type opioid receptor) was > 30 µM throughout.
For `C#C[C@]1(O)CC[C@H]2[C@@H]3CCc4cc(OC5CCCC5)ccc4[C@H]3CC[C@@]21C` [QUINESTROL], the concentration at half-maximal activity (AC50) is 0.221 µM on Progesterone receptor, > 10 µM in test [2], > 30 µM on Mu-type opioid receptor and > 10 µM in test [4].
`CN1C(=O)C(O)N=C(c2ccccc2)c2cc(Cl)ccc21` (centres undefined) [TEMAZEPAM]: the AC50 is > 30 µM in test [1]; > 30 µM at Cannabinoid receptor 1; > 10 µM in test [2]; > 30 µM at Endothelin-1 receptor; > 30 µM in test [4]; > 30 µM in test [3].
As to `CCN(CC)C(=O)N[C@H]1C[C@@H]2c3cccc4[nH]cc(c34)C[C@H]2N(C)C1` [TERGURIDE], the half-maximal activity concentration (AC50) (in test [1]; on Cannabinoid receptor 1; at Progesterone receptor; in test [2]; on Endothelin-1 receptor; on Mu-type opioid receptor) was > 30 µM in each case. The AC50 in test [3] was > 30 µM.
In the case of `C[C@]12CC[C@H]3[C@@H](CCC4=CC(=O)CC[C@@]43C)[C@@H]1CC[C@@H]2O` [TESTOSTERONE], the AC50 on Progesterone receptor was 0.092 µM; in test [2] it was > 10 µM; on Mu-type opioid receptor, > 30 µM.
Regarding `CC(=O)O[C@H]1C[C@@H]2CC[C@@H]3[C@H](CC[C@@]4(C)[C@H]3C[C@H]([N+]3(C)CCCCC3)[C@@H]4OC(C)=O)[C@@]2(C)C[C@@H]1N1CCCCC1` [VECURONIUM], the concentration at half-maximal activity (AC50) (in test [1]; at Cannabinoid receptor 1; at Progesterone receptor; in test [2]; on Endothelin-1 receptor; on Mu-type opioid receptor) was > 30 µM each time. In addition, in test [3], the concentration at half-maximal activity (AC50) was > 30 µM.
